This experiment concerns the target T1, hMCP-1 receptor (MCP-1 receptor B, CCR2B) (Homo sapiens, UniProt P41597).
T1 construct: expressed in transfected cells; host or cells: CHO-K1 (clone 7, CHO-CCR2B), membrane fragments
T1 sequence (P41597 1-360 isoform P41597-2): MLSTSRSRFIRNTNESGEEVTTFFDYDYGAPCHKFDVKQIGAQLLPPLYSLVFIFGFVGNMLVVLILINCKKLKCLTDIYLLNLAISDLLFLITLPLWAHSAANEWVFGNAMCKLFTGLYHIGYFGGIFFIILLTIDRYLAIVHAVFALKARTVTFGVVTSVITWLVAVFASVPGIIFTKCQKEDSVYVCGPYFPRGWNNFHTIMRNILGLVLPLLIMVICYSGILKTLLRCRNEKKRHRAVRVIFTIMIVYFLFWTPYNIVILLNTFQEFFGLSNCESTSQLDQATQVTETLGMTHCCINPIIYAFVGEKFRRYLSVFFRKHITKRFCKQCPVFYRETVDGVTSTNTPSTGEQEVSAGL
The experiment is described as follows: hMCP-1 receptor-binding assay. To be noted: competition with 100 pM 125I-labelled MCP-1; CHO-CCR2B cell membranes; 0.1-200 μM, eight point dose-response curves in duplicate. From the text: a) hMCP-1 Receptor-binding Assay
The MCP-1 receptor B (CCR2B) cDNA was cloned by PCR from THP-1 cell RNA using suitable oligonucleotide primers based on the published MCP-1 receptor sequences (Charo et al., 1994, Proc. Natl. Acad. Sci. USA, 91, 2752). The resulting PCR products were cloned into vector PCR-II™ (InVitrogen, San Diego, Calif.). Error free CCR2B cDNA was subcloned as a Hind III-Not I fragment into the eukaryotic expression vector pCDNA3 (InVitrogen) to generate pCDNA3/CC-CKR2A and pCDNA3/CCR2B respectively.
Linearised pCDNA3/CCR2B DNA was transfected into CHO-KI cells by calcium phosphate precipitation (Wigler et al., 1979, Cell, 16, 777). Transfected cells were selected by the addition of Geneticin Sulphate (G418, Gibco BRL) at 1 mg/ml, 24 hours after the cells had been transfected. Preparation of RNA and Northern blotting were carried out as described previously (Needham et al., 1995, Prot. Express. Purific., 6, 134). CHO-K1 clone 7 (CHO-CCR2B) was identified as the highest MCP-1 receptor B expressor.
CHO-CCR2B cells were grown in DMEM supplemented with 10% foetal calf serum, 2 mM glutamine, lx Non-Essential Amino Acids, 1× Hypoxanthine and Thymidine Supplement and Penicillin-Streptomycin (at 50 μg streptomycin/ml; Gibco BRL). […]

As a reminder, the IC50 is the concentration that inhibits the measured activity by half. On to `Cc1c2c(n(Cc3ccc(Cl)c(Cl)c3)c1C(=O)O)CCCC2=O` [Example 4a, 1-(3,4-Dichlorobenzyl)-3-methyl-4-oxo-4,5,6,7-tetrahydroindole-2-carboxylicAcid], for which the IC50 is 400 nM.

Values taken from patent US6291507A, “Chemical compounds” (Astrazeneca UK Limited, priority 1998, dated 2001).
